IC50 data for seven compounds are collected here from US20170114049A1, “2,5-DISUBSTITUTED CYCLOPENTANE CARBOXYLIC ACIDS FOR THE TREATMENT OF RESPIRATORY TRACT DISEASES” (BAYER PHARMA AKTIENGESELLSCHAFT, priority 2014, published 2017).

A word on the IC50: it is the concentration that gives 50% inhibition. Low values mean greater potency, high ones weaker potency.

Type in all cases: biochemical
One assay deals with T1, MMP-3 (Homo sapiens, UniProt P08254).
T1 construct: purchased R&D Systems 513-MP
T1 sequence (P08254 100-477): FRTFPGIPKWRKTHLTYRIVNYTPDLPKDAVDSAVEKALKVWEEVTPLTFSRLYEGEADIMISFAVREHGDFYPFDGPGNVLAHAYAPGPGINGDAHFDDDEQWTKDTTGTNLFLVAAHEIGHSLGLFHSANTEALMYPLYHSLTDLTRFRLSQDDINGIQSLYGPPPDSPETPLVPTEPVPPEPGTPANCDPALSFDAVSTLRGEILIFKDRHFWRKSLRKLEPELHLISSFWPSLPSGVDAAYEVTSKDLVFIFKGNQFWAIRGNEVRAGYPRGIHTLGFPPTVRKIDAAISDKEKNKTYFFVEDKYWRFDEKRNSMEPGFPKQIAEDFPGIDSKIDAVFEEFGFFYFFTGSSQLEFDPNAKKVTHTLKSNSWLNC
The assay can be described thus: In vitro MMP-3 inhibition test. From the text:
(§1) The MMP-mediated amidolytic cleavage of a suitable peptide substrate leads to an increase in fluorescent light here too. The signal intensity of the fluorescent light is directly proportional to the enzyme activity. The active concentration of a test compound at which half the enzyme is inhibited (50% signal intensity of the fluorescent light) is reported as the […].
(§2) Recombinant MMP-3 (from R&D Systems, 513-MP) is chemically activated in accordance with the manufacturer's instructions using APMA. 1 μl of the test compound to be analysed (as a solution in DMSO, suitable concentrations, for example, 1 nM to 30 μM) is pipetted into 24 μl of activated enzyme (final concentration, for example, 2 nM) in reaction buffer (50 mM Tris/HCl pH 7.5, 10 mM CaCl2, 150 mM NaCl, 0.05% Brij®-35) in a white 384-hole microtiter plate (MTP). The enzymatic reaction is started by adding the intramolecularly quenched Mca-Arg-Pro-Lys-Pro-Val-Glu-Nval-Trp-Arg-Lys(Dnp)-NH2 substrate (final concentration, for example, 10 μM; R&D Systems, ES-002), so as to result in a total test volume of 50 μl. The course of the MMP-3 reaction is measured by measuring the fluorescence intensity (excitation 320 nm, emission 410 nm) over a suitable period of time (for example over 120 min at a temperature of 32° C.).

Another assay has as its target T2, MMP-1 (Homo sapiens, UniProt P03956).
T2 construct: purchased R&D Systems 901-MP
T2 sequence (P03956 100-469): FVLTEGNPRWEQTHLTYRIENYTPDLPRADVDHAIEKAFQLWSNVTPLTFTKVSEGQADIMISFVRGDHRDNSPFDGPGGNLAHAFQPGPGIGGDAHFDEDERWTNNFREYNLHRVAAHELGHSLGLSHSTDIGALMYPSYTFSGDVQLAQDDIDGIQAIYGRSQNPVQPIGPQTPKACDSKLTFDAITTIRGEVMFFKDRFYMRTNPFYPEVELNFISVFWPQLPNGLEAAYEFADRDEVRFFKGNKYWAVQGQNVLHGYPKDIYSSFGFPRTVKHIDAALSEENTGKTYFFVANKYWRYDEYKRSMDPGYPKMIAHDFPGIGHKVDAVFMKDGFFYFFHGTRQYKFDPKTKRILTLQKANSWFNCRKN
The assay can be described thus: In vitro MMP-1 inhibition test.
Description: as §1
as §2, with “MMP-1” for “MMP-3”, “901-MP)” for “513-MP)”, “Mca-Pro-Leu-Gly-Leu-Dpa(Dnp)-Ala-Arg-NH2” for “Mca-Arg-Pro-Lys-Pro-Val-Glu-Nval-Trp-Arg-Lys(Dnp)-NH2”, “ES-001),” for “ES-002),”

The target in another assay is T3, mouse MMP-2 (Mus musculus, UniProt P33434).
T3 construct: purchased R&D Systems 924-MP
T3 sequence (P33434 110-662): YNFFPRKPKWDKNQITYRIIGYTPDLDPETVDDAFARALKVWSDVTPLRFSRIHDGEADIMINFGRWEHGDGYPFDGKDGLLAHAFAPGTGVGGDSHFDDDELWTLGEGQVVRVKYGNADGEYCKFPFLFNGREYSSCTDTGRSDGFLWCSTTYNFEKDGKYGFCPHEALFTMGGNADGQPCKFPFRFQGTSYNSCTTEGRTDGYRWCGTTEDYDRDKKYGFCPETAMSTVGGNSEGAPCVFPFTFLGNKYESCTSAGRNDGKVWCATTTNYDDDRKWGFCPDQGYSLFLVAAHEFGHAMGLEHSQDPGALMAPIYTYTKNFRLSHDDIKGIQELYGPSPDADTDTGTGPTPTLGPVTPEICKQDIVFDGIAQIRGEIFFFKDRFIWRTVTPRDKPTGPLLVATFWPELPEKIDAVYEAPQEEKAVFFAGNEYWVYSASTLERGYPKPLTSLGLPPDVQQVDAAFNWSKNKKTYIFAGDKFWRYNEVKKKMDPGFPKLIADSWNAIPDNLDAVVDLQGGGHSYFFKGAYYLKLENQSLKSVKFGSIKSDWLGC
The assay can be described thus: In vitro mouse MMP-2 inhibition test.
Description: as §1
as §2, with “Recombinant mouse MMP-2” for “Recombinant MMP-3”, “Systems, 924-MP)” for “Systems, 513-MP)”, “example, 0.1” for “example, 2”, “quenched Mca-Pro-Leu-Gly-Leu-Dpa(Dnp)-Ala-Arg-NH2” for “quenched Mca-Arg-Pro-Lys-Pro-Val-Glu-Nval-Trp-Arg-Lys(Dnp)-NH2”, “Systems, ES-001),” for “Systems, ES-002),”, “the MMP-2” for “the MMP-3”

The target in the next assay is T4, MMP-9 (Homo sapiens, UniProt P14780).
T4 construct: purchased R&D Systems 911-MP
T4 sequence (P14780 107-707 limits assumed): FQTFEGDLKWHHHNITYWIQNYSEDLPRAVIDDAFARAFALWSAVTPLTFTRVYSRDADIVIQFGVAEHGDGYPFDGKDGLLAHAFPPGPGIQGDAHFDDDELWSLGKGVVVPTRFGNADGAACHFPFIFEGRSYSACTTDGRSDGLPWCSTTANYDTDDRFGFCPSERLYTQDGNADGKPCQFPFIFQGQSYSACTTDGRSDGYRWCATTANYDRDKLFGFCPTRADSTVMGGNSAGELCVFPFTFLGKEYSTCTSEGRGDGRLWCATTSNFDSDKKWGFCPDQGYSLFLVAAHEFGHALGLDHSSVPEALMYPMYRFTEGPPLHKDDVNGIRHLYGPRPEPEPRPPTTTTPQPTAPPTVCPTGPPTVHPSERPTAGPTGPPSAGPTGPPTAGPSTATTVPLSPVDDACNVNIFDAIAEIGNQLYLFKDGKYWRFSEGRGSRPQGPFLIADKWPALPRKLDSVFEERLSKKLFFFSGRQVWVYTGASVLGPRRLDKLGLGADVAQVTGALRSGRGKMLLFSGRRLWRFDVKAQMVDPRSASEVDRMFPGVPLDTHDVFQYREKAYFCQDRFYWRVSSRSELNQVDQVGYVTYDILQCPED
Put plainly: In vitro MMP-9 inhibition test.

The target of a further assay is T5, MMP-8 (Homo sapiens, UniProt P22894).
T5 construct: purchased R&D Systems 908-MP
T5 sequence (P22894 101-467): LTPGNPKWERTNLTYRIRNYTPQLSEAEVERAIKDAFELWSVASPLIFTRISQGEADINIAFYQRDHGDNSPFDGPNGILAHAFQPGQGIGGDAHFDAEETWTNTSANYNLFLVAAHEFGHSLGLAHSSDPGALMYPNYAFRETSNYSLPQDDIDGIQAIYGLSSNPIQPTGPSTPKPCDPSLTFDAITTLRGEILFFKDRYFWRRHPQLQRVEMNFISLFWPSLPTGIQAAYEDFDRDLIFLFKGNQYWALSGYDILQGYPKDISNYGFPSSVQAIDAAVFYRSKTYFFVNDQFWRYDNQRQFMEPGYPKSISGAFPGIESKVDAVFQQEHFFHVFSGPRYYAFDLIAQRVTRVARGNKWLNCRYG
Put plainly: In vitro MMP-8 inhibition test.
Description: as §1
as §2, with “Recombinant MMP-8” for “Recombinant MMP-3”, “Systems, 908-MP)” for “Systems, 513-MP)”, “example, 0.5” for “example, 2”, “quenched Mca-Pro-Leu-Gly-Leu-Dpa(Dnp)-Ala-Arg-NH2” for “quenched Mca-Arg-Pro-Lys-Pro-Val-Glu-Nval-Trp-Arg-Lys(Dnp)-NH2”, “Systems, ES-001),” for “Systems, ES-002),”, “the MMP-8” for “the MMP-3”

On to `O=C(O)[C@@H]1[C@@H](Cn2nnc3ccccc3c2=O)CC[C@H]1C(=O)c1ccc(OCC2CCOCC2)cc1` (stereo in doubt) [Example 2, (+)-(1RS,2SR,5RS)-2-[(4-Oxo-1,2,3-benzotriazin-3(4H)-yl)methyl]-5-[4-(tetrahydro-2H-pyran-4-ylmethoxy)benzoyl]cyclopentanecarboxylic acid], for which the 50% inhibitory concentration (IC50) worked out at 710 nM on MMP-3; 10000 nM against MMP-1; 58 nM at mouse MMP-2; 360 nM against MMP-9; 4.7 nM against MMP-8.

In the case of `O=C(O)[C@@H]1[C@@H](Cn2nnc3ccccc3c2=O)CC[C@H]1C(=O)c1ccc(OCCC2CCOCC2)cc1` (single isomer, unassigned) [Example 5, (+)-(1RS,2SR,5RS)-2-[(4-Oxo-1,2,3-benzotriazin-3(4H)-yl)methyl]-5-{4-[2-(tetrahydro-2H-pyran-4-yl)ethoxy]benzoyl}cyclopentanecarboxylic acid], the concentration for half-maximal inhibition (IC50) against MMP-3 is 360 nM; against MMP-1 it was > 40000 nM; against mouse MMP-2 it was 45 nM; against MMP-9 it was 460 nM; against MMP-8, 15 nM.

Turning to `O=C(O)[C@@H]1[C@@H](Cn2nnc3ccc(C(F)(F)F)cc3c2=O)CC[C@H]1C(=O)c1ccc(OCCC2CCOCC2)cc1` (single isomer, unassigned) [Example 11, (+)-(1RS,2SR,5RS)-2-{[4-Oxo-6-(trifluoromethyl)-1,2,3-benzotriazin-3(4H)-yl]methyl}-5-{4-[2-(tetrahydro-2H-pyran-4-yl)ethoxy]benzoyl}cyclopentanecarboxylic acid], the IC50 on MMP-3 stood at 260 nM; against MMP-1, 27000 nM; on mouse MMP-2, 640 nM; against MMP-9 it was 660 nM; against MMP-8, 5.6 nM.

As to “(+)-(1RS,2SR,5RS)-2-{[4-Oxo-6-(trifluoromethyl)-1,2,3-benzotriazin-3(4H)-yl]methyl}-5-[4-(tetra-hydro-2H-pyran-4-ylmethoxy)benzoyl]cyclopentanecarboxylic acid [Example 8]”, the IC50 came out at 100 nM against MMP-3, 1800 nM on MMP-1, 55 nM against MMP-9 and 0.6 nM against MMP-8.

For the compound `O=C(O)[C@H]1[C@H](Cn2nnc3ccc(C(F)(F)F)cc3c2=O)CC[C@@H]1C(=O)c1ccc(OCC2CCOCC2)cc1` (racemic) [Example 7, (+/−)-(1RS,2SR,5RS)-2-{[4-Oxo-6-(trifluoromethyl)-1,2,3-benzotriazin-3(4H)-yl]methyl}-5-[4-(tetrahydro-2H-pyran-4-ylmethoxy)benzoyl]cyclopentanecarboxylic acid], the IC50 at MMP-3 was 190 nM; at MMP-1, 6500 nM; on MMP-9, 120 nM; against MMP-8, 1 nM.

For the compound `O=C(O)[C@H]1[C@H](Cn2nnc3ccccc3c2=O)CC[C@@H]1C(=O)c1ccc(OCCC2CCOCC2)cc1` (stereo in doubt) [Example 4, (+/−)-(1RS,2SR,5RS)-2-[(4-Oxo-1,2,3-benzotriazin-3(4H)-yl)methyl]-5-{4-[2-(tetrahydro-2H-pyran-4-yl)ethoxy]benzoyl}cyclopentanecarboxylic acid], the IC50 against MMP-1 is > 40000 nM; against mouse MMP-2, 490 nM; against MMP-9, 5000 nM; on MMP-8, 98 nM.

Consider `O=C(O)[C@@H]1[C@@H](Cn2nnc3ccc(C(F)(F)F)cc3c2=O)CC[C@H]1C(=O)c1ccc(SCC2CCOCC2)cc1` (single isomer, unassigned) [Example 15, (+)-(1RS,2SR,5RS)-2-{[4-Oxo-6-(trifluoromethyl)-1,2,3-benzotriazin-3(4H)-yl]methyl}-5-{4-[(tetrahydro-2H-pyran-4-ylmethyl)sulphanyl]benzoyl}cyclopentanecarboxylic acid], for which the IC50 was 95 nM against MMP-3, 11000 nM against MMP-1, 150 nM against MMP-9 and 0.9 nM against MMP-8.
